“And” between values parts separate entries of the source, which are not always exact repeats. Identical values can stand only once. Toxic doses and inconclusive results are not listed.
Tested on: P388 leukemia ip, CD2F1 mice, survival T/C
Experiment: NCI In Vivo Anticancer Drug Screen. Data for tumor model P388 Leukemia (intraperitoneal) in CD2F1 (CDF1) mice
Settings: endpoint: median survival time, higher = longer survival
Outline: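 Mice carrying the transplanted tumor received test compound or vehicle. Survival was recorded in each group, and the value is the treated-group measurement divided by that of the vehicle-treated control group.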

[1] = dose: 50.0 mg/kg/injection, schedule: Q01DX009 (ip), vehicle: saline
[2] = dose: 100.0 mg/kg/injection, schedule: Q01DX009 (ip), vehicle: saline
[3] = dose: 100.0 mg/kg/injection, schedule: Q01DX009 (ip), vehicle: saline with Tween-80
[4] = dose: 200.0 mg/kg/injection, schedule: Q01DX009 (ip), vehicle: saline with Tween-80
[5] = dose: 60.0 mg/kg/injection, schedule: Q01DX005 (ip), vehicle: saline with Tween-80
[6] = dose: 120.0 mg/kg/injection, schedule: Q01DX005 (ip), vehicle: saline with Tween-80
[7] = dose: 240.0 mg/kg/injection, schedule: Q01DX005 (ip), vehicle: saline with Tween-80

CCCCCCCCCCCCOC(=O)CN=C=O
T/C [1]: 100 % of control and 101 % of control
T/C [2]: 100 % of control
T/C (dose: 200.0 mg/kg/injection, schedule: Q01DX009 (ip), vehicle: saline): 107 % of control and 89 % of control

CC(=O)Nc1cccn(C)c1=O
T/C (dose: 6.25 mg/kg/injection, schedule: Q01DX009 (ip), vehicle: distilled water + Tween-80): 100 % of control
T/C (dose: 12.5 mg/kg/injection, schedule: Q01DX009 (ip), vehicle: distilled water + Tween-80): 100 % of control
T/C (dose: 12.5 mg/kg/injection, schedule: Q01DX009 (ip), vehicle: water): 98 % of control
T/C (dose: 25.0 mg/kg/injection, schedule: Q01DX009 (ip), vehicle: distilled water + Tween-80): 102 % of control
T/C (dose: 25.0 mg/kg/injection, schedule: Q01DX009 (ip), vehicle: water): 123 % of control
T/C (dose: 50.0 mg/kg/injection, schedule: Q01DX009 (ip), vehicle: distilled water + Tween-80): 107 % of control
T/C (dose: 50.0 mg/kg/injection, schedule: Q01DX009 (ip), vehicle: water): 112 % of control
T/C (dose: 100.0 mg/kg/injection, schedule: Q01DX009 (ip), vehicle: distilled water + Tween-80): 120 % of control
T/C (dose: 100.0 mg/kg/injection, schedule: Q01DX009 (ip), vehicle: water): 113 % of control
T/C (dose: 200.0 mg/kg/injection, schedule: Q01DX009 (ip), vehicle: water): 112 % of control

Nc1nc(N)c2cc(Sc3cccc(C(F)(F)F)c3)ccc2n1
T/C [3]: 172 % of control
T/C [4]: 94 % of control

CC1C2=C(CN(C)CC2)c2ccccc21 (centres undefined)
T/C (dose: 12.5 mg/kg/injection, schedule: Q01DX005 (ip), vehicle: saline with Tween-80): 100 % of control
T/C (dose: 25.0 mg/kg/injection, schedule: Q01DX005 (ip), vehicle: saline with Tween-80): 96 % of control
T/C (dose: 50.0 mg/kg/injection, schedule: Q01DX005 (ip), vehicle: saline with Tween-80): 105 % of control

C=C(C)c1nn(-c2ccccc2)c2c1C(=O)CC(C)O2 (centres undefined)
T/C [5]: 98 % of control
T/C [6]: 100 % of control
T/C [7]: 98 % of control

Cc1ccc(NC(=O)c2ccc(Cl)cc2Cl)cc1C
T/C [3]: 95 % of control
T/C [4]: 104 % of control
T/C (dose: 400.0 mg/kg/injection, schedule: Q01DX009 (ip), vehicle: saline with Tween-80): 100 % of control

COC(=O)C1(C(=O)OC)CCCC2=NOC3CCC1C23 (centres undefined)
T/C (dose: 6.25 mg/kg/injection, schedule: Q01DX002 (ip), vehicle: Klucel (hydroxypropylcellulose) (HPC)): 107 % of control
T/C (dose: 12.5 mg/kg/injection, schedule: Q01DX002 (ip), vehicle: Klucel (hydroxypropylcellulose) (HPC)): 100 % of control
T/C (dose: 25.0 mg/kg/injection, schedule: Q01DX002 (ip), vehicle: Klucel (hydroxypropylcellulose) (HPC)): 93 % of control

COc1ccc2c(c1)NC(=O)Cn1nnnc1-2
T/C (dose: 25.0 mg/kg/injection, schedule: Q04DX002 (ip), vehicle: saline with Tween-80): 96 % of control
T/C (dose: 50.0 mg/kg/injection, schedule: Q04DX002 (ip), vehicle: saline with Tween-80): 91 % of control
T/C (dose: 100.0 mg/kg/injection, schedule: Q04DX002 (ip), vehicle: saline with Tween-80): 96 % of control
T/C (dose: 400.0 mg/kg/injection, schedule: Q04DX002 (ip), vehicle: saline with Tween-80): 93 % of control

COC(=O)c1[nH]c(=O)c(C#N)c(C(=O)OC)c1-c1ccc(F)cc1
T/C [5]: 100 % of control
T/C [6]: 92 % of control
T/C [7]: 95 % of control

C=C(C)C1CC=C(C)C(OCCN(CC)CC)C1 (centres undefined)
T/C (dose: 50.0 mg/kg/injection, schedule: Q01DX005 (ip), vehicle: Klucel (hydroxypropylcellulose) (HPC)): 100 % of control
T/C (dose: 100.0 mg/kg/injection, schedule: Q01DX005 (ip), vehicle: Klucel (hydroxypropylcellulose) (HPC)): 103 % of control

CCOC(=O)Nc1nn(-c2ccccn2)c(=O)[nH]1
T/C (dose: 50.0 mg/kg/injection, schedule: Q01DX005 (ip), vehicle: distilled water + alcohol): 107 % of control
T/C (dose: 100.0 mg/kg/injection, schedule: Q01DX005 (ip), vehicle: distilled water + alcohol): 101 % of control
T/C (dose: 200.0 mg/kg/injection, schedule: Q01DX005 (ip), vehicle: distilled water + alcohol): 99 % of control

CC[As](CC)SCC1OC(OC(C)=O)C(OC(C)=O)C(OC(C)=O)C1OC(C)=O (centres undefined)
T/C (dose: 50.0 mg/kg/injection, schedule: Q01DX009 (ip), vehicle: saline + alcohol): 99 % of control
T/C [1]: 110 % of control
T/C (dose: 100.0 mg/kg/injection, schedule: Q01DX009 (ip), vehicle: saline + alcohol): 100 % of control
T/C [2]: 113 % of control
T/C (dose: 200.0 mg/kg/injection, schedule: Q01DX009 (ip), vehicle: saline + alcohol): 109 % of control

N#CN=C1N=S(=O)(c2ccccc2)c2ccccc21 (centres undefined)
T/C (dose: 50.0 mg/kg/injection, schedule: Q01DX009 (ip), vehicle: Klucel (hydroxypropylcellulose) (HPC)): 103 % of control
T/C (dose: 100.0 mg/kg/injection, schedule: Q01DX009 (ip), vehicle: Klucel (hydroxypropylcellulose) (HPC)): 100 % of control
T/C (dose: 200.0 mg/kg/injection, schedule: Q01DX009 (ip), vehicle: Klucel (hydroxypropylcellulose) (HPC)): 101 % of control

O=C(CNC(=O)Nc1ccc(Cl)c(Cl)c1)N/N=C/C=C/c1ccccc1
T/C (dose: 15.0 mg/kg/injection, schedule: Q01DX005 (ip), vehicle: saline with Tween-80): 96 % of control
T/C (dose: 30.0 mg/kg/injection, schedule: Q01DX005 (ip), vehicle: saline with Tween-80): 87 % of control

NC(CC1=CS(=O)(=O)c2ccc(Cl)cc21)C(=O)O (centres undefined)
T/C (dose: 25.0 mg/kg/injection, schedule: Q01DX001 (ip), vehicle: Klucel (hydroxypropylcellulose) (HPC)): 99 % of control
T/C (dose: 50.0 mg/kg/injection, schedule: Q01DX001 (ip), vehicle: Klucel (hydroxypropylcellulose) (HPC)): 96 % of control
T/C (dose: 100.0 mg/kg/injection, schedule: Q01DX001 (ip), vehicle: Klucel (hydroxypropylcellulose) (HPC)): 101 % of control

COC(=O)C(CSCc1ccccc1)NC(=O)CCNC(=O)OCc1ccccc1 (centres undefined)
T/C (dose: 25.0 mg/kg/injection, schedule: Q01DX009 (ip), vehicle: other): 103 % of control
T/C (dose: 50.0 mg/kg/injection, schedule: Q01DX009 (ip), vehicle: other): 103 % of control
T/C (dose: 100.0 mg/kg/injection, schedule: Q01DX009 (ip), vehicle: other): 96 % of control
T/C (dose: 200.0 mg/kg/injection, schedule: Q01DX009 (ip), vehicle: other): 90 % of control
T/C (dose: 400.0 mg/kg/injection, schedule: Q01DX009 (ip), vehicle: other): 97 % of control

Clc1ccc(C(Cn2ccnc2)OCc2c(Cl)cccc2Cl)cc1 (centres undefined)
T/C (dose: 50.0 mg/kg/injection, schedule: Q01DX009 (ip), vehicle: saline with Tween-80): 102 % of control
T/C [3]: 97 % of control

From PubChem BioAssay AID330 (DTP/NCI, 2004)
